# From PMC9411606, “Control cell migration by engineering integrin ligand assembly” (Nature Communications, 2022)
# Assays:
# [1] = TEM imaging / preparation of peptide assemblies (nanofilament size and stability); type: physicochemical; conditions: in water
# Procedure: To prepare the stocks of peptide assembled nanofilaments, the required amount of peptide was dissolved in Milli-Q water at 100 mM (for FFF) or 10 mM (for the other peptides, and peptides mixture) and adjust the solution to reach a final pH of 7.0 using 1 N NaOH solution. To stabilize the peptide assemblies, the stock solutions were stored at room temperature for at least 24 h before application. The obtained nanofilaments were very stable and were not affected by simple dilution at neutral pH. Therefore, to prepare the working solution, the desired amount of stock solution was diluted using Milli-Q water or the culture medium. Stand the working solutions for 30 min to evenly distribute nanofilaments in the working solution before applying them to the experiments.
# To prepare TEM samples, 5 μL peptide solution was dropped on a glow-charged copper grid (400 mesh) coated with carbon film. After removing excess solution, the grid was gently washed three times to remove excess nanofilaments. Then the sample grid was negatively stained using 1.0% (w/v) uranyl acetate and air-dried. TEM images were captured at a high vacuum using a transmission electron microscope (JEM-1230R, JEOL, Japan).
# HuH-7 cells [2] = assay: Traction stress analysis; type: cell-based, human; conditions: HuH-7 on PDMS, 12 hr, n = 18-21 cells
# Procedure: mRuby-Lifeact-7 transfected HuH-7 cells were applied for the traction force microscopy experiments. The in situ fluorescent images of the cell was applied to define the area of measurement. The cells were seeded on a PDMS substrate functionalized with 0.2 µm FluoSpheres™ Carboxylate-Modified Microspheres (F8807, Invitrogen) at a density of approximately 6000 cells/cm^2. The substrate was fabricated by following the published protocol on (STAR) Protocol[45], except that there were no ECM proteins coated on the substrate here. […] After being pretreated with peptides for 12 hr, the samples were imaged by a 100×/1.35 Silicon UPlanSApo objective, and the bead displacement obtained from confocal imaging was converted into force-displacement fields following established protocol[47],[48]. Briefly, Images of beads with and without cell attachment were first aligned to correct experimental drift using ImageJ plugin “align slices in stack”. The displacement field was subsequently calculated by another ImageJ plugin “PIV (Particle Image Velocimetry)”. The cross-correlation PIV with a size of 64 × 32 pixels was used on all images for the PIV analysis to produce the position and vector field of the bead displacement. With the displacement field obtained from the PIV analysis, the traction force field was then reconstructed by the ImageJ plugin “FTTC”. […]
# HuH-7 cells [3] = assay: Random cell migration assay; type: cell-based, human
# Procedure: HuH-7 cells were labeled with fluorescent protein fusion constructs or Hoechst 33342. After being treated with or without the peptides for 12 hr, the cells were tracked with a 20x/0.8 Plan-Apochromat objective for 6 h. The centroids of labeled cells were tracked using the TrackMate plugin (https://imagej.net/plugins/trackmate/) in ImageJ[44]. A custom MATLAB script generated by a person was applied to reconstruct the cell migration trajectory. […]
# The directionality of the cell movement was described by the persistence index and the persistent time, the persistence index was defined by the ratio of the vectorial distance (the distance between the origin and the endpoint of the movement) and the length of the total path and the persistent time is defined as the time it takes for the cell to change the initial direction by 90°[45].
# HuH-7 cells [4] = assay: Cell spreading evaluation (phalloidin staining); type: cell-based, human
# Procedure: All microscope imaging was performed with a Zeiss LSM 780 or Olympus SD-OSR. To assess the F-actin organization after certain treatments, cells were seeded on a glass-bottom culture dish (D11130H, Matsunami). After culture with the peptides, cells were fixed with 4% paraformaldehyde phosphate buffer solution (PFA, 30525-89-4, Wako) for 10 min at room temperature, washed, and permeabilized with 0.1% Triton X-100 (Sigma) in PBS for 15 min. Cells were washed with DPBS twice and incubated with ActinRed (Rhodamine-conjugated phalloidin, R37112, Invitrogen) or ActinGreen (Alexa-Fluor-488-conjugated phalloidin, R37110, Invitrogen) for 15 min at room temperature. Cells were washed with DPBS before being imaged. Morphological characteristics, including cell spreading area and perimeter area ratio, were quantified by Image J.
# [5] = system: cells expressing integrin α3β1; assay: Cell adhesion assay, cells expressing integrin α3β1; type: cell-based, human; conditions: coated with 100 µM, 1 h at 37 °C, n = 30
# Procedure: (§1) The 96-well microplates wells were coated with peptide assemblies (the concentration of FFFIKLLI was kept at 100 μM constantly) for 12 hr at 37 °C before blocked with the Blocking Buffer (2% BSA, 1 mM CaCI2 and 1 mM MnCI2 in PBS) for 1 hr at 37 °C. Cells were collected from culture dishes and suspended in the Blocking Buffer containing anti-laminin-5 (P3H9-2, MAB1947, Chemicon, 5 μg/ml), anti-fibronectin (IST-9, ab6328, Abcam, 20 μg/ml) or IgG isotype control (20 μg/ml, Abcam) before immediately seeded to the coated well (20,000 cells/well) and allowed to incubate at 37 °C for 1 h. The wells were washed for three times with the Blocking Buffer and the phase-contrast images were captured by IncucyteS3 (Essen Bioscience) with a 10× objective.
# [6] = system: cells lacking integrin α3β1 expression; assay: Cell adhesion assay, cells lacking integrin α3β1; type: cell-based, human; conditions: coated with 100 µM, 1 h at 37 °C, n = 30
# Procedure: as §1
# [7] = vin258-transfected HuH-7, 12 hr, n = 51 cells, mean
sequence,measurement,setting,value
FFFIKLLI [assembling ligand: FFF coupled to the N-terminus of IKLLI; self-assembles into nanofilaments],nanofilament width,"[1]; TEM, FFFIKLLI 100 μM",~ 100 nm
same,nanofilament stability,"[1]; neutral pH, simple dilution",stable
same,Average Traction Stress,HuH-7 cells [2],0.101 kPa
same,Maximal Traction Stress,HuH-7 cells [2],0.828 kPa
same,"cell motility, vin258-expressing cells","HuH-7 cells [3]; HuH-7 expressing vin258, 12 h",suppression effect on cell motility was remained
same,migration speed,"HuH-7 cells [3]; Tiam1/Rac1-activated HuH-7, n = 230, 232 cells, p = 0.4508 vs Ctrl",0.3729 µm/min
same,migration speed,"HuH-7 cells [3]; vin258-transfected HuH-7, mean, n = 169, 176 cells",0.140 µm/min
same,Perimeter / Area,"HuH-7 cells [4]; Tiam1/Rac1-preactivated HuH-7, 12 hr, n = 64 cells, p = 0.5635 vs Ctrl",0.1130 µm-1
same,Spreading area,"HuH-7 cells [4]; Tiam1/Rac1-preactivated HuH-7, 12 hr, n = 64 cells, p = 0.8317 vs Ctrl",4496 µm2
same,Spreading area,"HuH-7 cells [4]; glass, FN or LM-5 coated dish (order not readable), 12 hr, value 2",1802 µm2
same,Spreading area,"HuH-7 cells [4]; glass, FN or LM-5 coated dish (order not readable), 12 hr, value 3",1763 µm2
same,Perimeter / Area,HuH-7 cells [4]; [7],0.2881 µm-1
same,Spreading area,HuH-7 cells [4]; [7],2047 µm2
same,adherence to FFFIKLLI-coated dishes,[5],remained adhered to the substrate
same,adherence to FFFIKLLI-coated dishes,[6],washed out
